Literature values as cited in the PKSmart pharmacokinetics tables (Seal et al. 2025).

Assays:
[1] = Lombardo et al. 2013, J Clin Pharmacol 53:178, doi 10.1177/0091270012440282; conditions: for Vd / clearance: in vivo, iv; for fraction unbound: plasma
[2] = Lombardo, Berellini, Obach 2018, Drug Metab Dispos 46:1466, doi 10.1124/dmd.118.082966; conditions: human; for MRT / Vd / clearance / half-life: in vivo, iv; for fraction unbound: plasma

Vd ([1]; rat) [L/kg] | clearance ([1]; rat) [mL/min/kg] | MRT [2] [h] | Vd [2] [L/kg] | clearance [2] [mL/min/kg] | half-life [2] [h] | fraction unbound ([1]; rat) | fraction unbound [2] | clearance ([1]; monkey) [mL/min/kg] | fraction unbound ([1]; monkey) | fraction unbound ([1]; dog) | Vd ([1]; dog) [L/kg] | clearance ([1]; dog) [mL/min/kg] | Vd ([1]; monkey) [L/kg] | SMILES
0.32 | 0.17 | 43 | 0.21 | 0.082 | 31 | – | – | – | – | – | – | – | – | CN(C(=O)c1c(O)c2ccccc2n(C)c1=O)c1ccccc1
8 | 26.7 | 46.1 | 1.41 | 0.51 | 40 | 0.015 | 0.008 | – | – | – | – | – | – | Cc1nc2sccn2c(=O)c1CCN1CCC(=C(c2ccc(F)cc2)c2ccc(F)cc2)CC1
– | 43 | 45 | – | 5.2 | 45 | – | – | 3.7 | 0.497 | – | – | – | – | NC(=O)c1ncn([C@@H]2O[C@H](CO)[C@@H](O)[C@H]2O)n1
– | – | 7.6 | 1.1 | – | 6 | – | – | – | – | 0.18 | – | – | – | CC(C)(C)NC(=O)C1CC[C@H]2[C@@H]3CC[C@H]4NC(=O)C=C[C@]4(C)[C@H]3CC[C@]12C (stereo partly drawn)
4.5 | 47.5 | 11 | 3.3 | 4.9 | 11 | – | – | – | – | – | – | – | – | CC(C)(C)NCC(O)COc1ccc(NC(=O)NC2CCCCC2)cc1 (stereo not drawn)
3.3 | 48 | 9.4 | 3.2 | 5.7 | 7.2 | 0.426 | – | – | – | – | 1.1 | 23.1 | – | CCN(CC)CCNC(=O)c1cc(Cl)c(N)cc1OC
0.23 | 3.74 | 6.6 | 0.21 | 0.53 | 5.1 | 0.06 | – | – | – | 0.02 | 0.08 | 0.14 | – | Cc1cccc(Nc2ccncc2S(=O)(=O)NC(=O)NC(C)C)c1
– | – | 2.3 | 0.75 | 5.5 | 2.2 | – | 0.06 | – | – | – | 1.42 | 30 | – | CCCN1CCCCC1C(=O)Nc1c(C)cccc1C (stereo not drawn)
0.9 | 12.1 | 13.7 | 1 | 1.23 | – | 0.13 | 0.25 | 3.39 | 0.19 | 0.23 | 1.29 | 2.43 | 0.96 | C[C@H]1NCc2cc(-c3ccc4c(=O)c(C(=O)O)cn(C5CC5)c4c3OC(F)F)ccc21
1.8 | 7.9 | 0.59 | 4.6 | 130 | 0.58 | – | – | – | – | – | 0.85 | 8.6 | – | Nc1ncn([C@H]2C[C@H](O)[C@@H](CO)O2)c(=O)n1
0.79 | 32.4 | – | 0.37 | 16 | 0.57 | – | 0.4 | – | – | – | 0.93 | 67.2 | – | CC#CCC(C)[C@H](O)/C=C/[C@@H]1[C@H]2C/C(=C/CCCC(=O)O)C[C@H]2C[C@H]1O (stereo partly drawn)
1.6 | 5.2 | 29 | 0.83 | – | – | – | 0.25 | – | – | – | – | – | – | Nc1ccc(S(=O)(=O)c2ccc(N)cc2)cc1
– | – | 3.4 | 0.43 | 2.1 | – | 0.68 | – | – | – | – | – | – | – | CN(Cc1cnc2nc(N)nc(N)c2n1)c1ccc(C(=O)NC(CCC(=O)O)C(=O)O)cc1 (stereo not drawn)
0.68 | 5 | 3.8 | 0.55 | 2.4 | 3.4 | 0.91 | – | – | – | – | 1 | 19.2 | – | CS(=O)(=O)OCCCCOS(C)(=O)=O
1 | 5 | 0.81 | 1.5 | 32 | 1 | 0.93 | 1 | 177 | – | 0.765 | 1.41 | 10.8 | 5.5 | Nc1ccn([C@@H]2O[C@H](CO)[C@@H](O)C2(F)F)c(=O)n1
0.35 | 25.3 | 1.5 | 0.13 | 1.5 | 1.5 | 0.55 | 0.15 | 3.3 | 0.34 | 0.75 | 0.9 | 8 | 0.3 | CO[C@@]1(NC(=O)CSCC#N)C(=O)N2C(C(=O)O)=C(CSc3nnnn3C)CS[C@@H]21
0.25 | 9.1 | 3.9 | 0.17 | 0.72 | 2.9 | 1 | 0.39 | 2.3 | 1 | 0.66 | 0.2 | 2.2 | 0.19 | CO[C@@]1(NC(=O)C(C(=O)O)c2ccc(O)cc2)C(=O)N2C(C(=O)O)=C(CSc3nnnn3C)CO[C@@H]21 (stereo partly drawn)
0.28 | 7.46 | 0.77 | 0.2 | 3.65 | 0.89 | – | 0.31 | – | – | – | 0.3 | 8.91 | – | CON=C(C(=O)NC1C(=O)N2C(C(=O)O)=C(CSc3nnnn3C)CS[C@H]12)c1csc(N)n1 (stereo partly drawn)
1.15 | 28 | 1.5 | 1.7 | 19 | 1.7 | 0.85 | – | – | – | 0.86 | 1.74 | 13.9 | – | CNS(=O)(=O)Cc1ccc2[nH]cc(CCN(C)C)c2c1
